Experimental data as given in patent publication US20220193170A1, “Nutraceutical Reduction Prevention and/or Reversion of Multiple Sclerosis” (Therapeutic Solutions International, Inc., priority 2020, published 2022).

What was measured:
[1] = system: Experimental autoimmune encephalomyelitis; assay: Experimental autoimmune encephalomyelitis (EAE) clinical score; assay type: in vivo; settings: female SJL/J mice, by gavage, alone and/or with Copaxone, observed at days 10, 20 and 30; bar graph
Experimental: Experimental autoimmune encephalomyelitis was induced in female SJL/J (6-8 weeks old) by injection PLP139-151 peptide (50 μg) emulsified in complete Freund's adjuvant (BD Diagnostics), containing killed Mycobacterium tuberculosis (400 μg/ml) in a volume of (50 μl per area). Animals were randomized to receive by QuadraMune™ by gavage, and/or Copaxone. Mice where observed for symptoms at days 10, 20 and 30.
Clinical scores (0, no symptoms; 1, limp tail; 2, partial paralysis of hind limbs; 3, complete paralysis of hind limbs or partial hind and front limb paralysis; 4, tetraparalysis; 5, moribund; 6, death).
Experimental autoimmune encephalomyelitis was induced in female SJL/J (6-8 weeks old) by injection PLP^139-151 peptide (50 μg) emulsified in complete Freund's adjuvant (BD Diagnostics), containing killed Mycobacterium tuberculosis (400 μg/ml) in a volume of (50 μl per area). Animals were randomized to receive pterostilbene by gavage, and/or Copaxone. Mice where observed for symptoms at days 10, 20 and 30.
Experimental autoimmune encephalomyelitis was induced in female SJL/J (6-8 weeks old) by injection PLP139-151 peptide (50 μg) emulsified in complete Freund's adjuvant (BD Diagnostics), containing killed Mycobacterium tuberculosis (400 μg/ml) in a volume of (50 μl per area). Animals were randomized to receive sulforaphane by gavage, and/or Copaxone. […]

osteoporosis = settings: OVX mice, vs PBS treatment group, cited from earlier work
IL-6 production = settings: cited from earlier work
[2] = system: oxygen-induced retinopathy; settings: OIR mice; UDCA 50 mg/kg, P7-P17; cited from earlier work
osteoblasts = settings: in vitro, cited from earlier work
acute pancreatitis = settings: AP mice gavaged with TUDCA; cited from earlier work
[3] = system: CD4+, CD25+, FoxP3+ Treg cells; settings: responding patients; cited from earlier work
Treg = settings: in vivo; cited from earlier work
[4] = serum, not significantly different

CC1=CC(=O)C(C(C)C)=CC1=O [thymoquinone]
EAE Score [1]: reduction in EAE Score

C[C@H](CCC(=O)NCCS(=O)(=O)O)[C@H]1CC[C@H]2[C@@H]3[C@@H](O)C[C@@H]4C[C@H](O)CC[C@]4(C)[C@H]3CC[C@]12C [TUDCA, tauroursodeoxycholic acid]
CTX level (osteoporosis; [4]): lower
PINP level (osteoporosis; [4]): higher
percentage bone volume with respect to total bone volume, bone mineral density, distal femur trabeculae (osteoporosis): increased
trabecular structures in the distal femur (micro-CT and histology) (osteoporosis): preserved more trabecular structures
Inflammation and IL-6 production triggered by infection with Brucella abortus (IL-6 production): reduced
extension of neovascular and avascular areas [2]: no changes
proliferation and viability of osteoblasts and osteoblast differentiation and mineralization (osteoblasts; 100 nM, 1 μM): significantly increased
detrimental effects of methylprednisolone (methylprednisolone-induced osteoblast apoptosis) (osteoblasts): neutralized
expression of farnesoid-x-receptor (FXR) and its target gene FGF15 (acute pancreatitis): downregulated
pancreatic and intestinal barrier function injury (acute pancreatitis): mitigated

C[C@H](CCC(=O)NCC(=O)O)[C@H]1CC[C@H]2[C@@H]3[C@@H](O)C[C@@H]4C[C@H](O)CC[C@]4(C)[C@H]3CC[C@]12C [GUDCA]
extension of neovascular and avascular areas [2]: no changes

glatiramer acetate
CD4+, CD25+, FoxP3+ Treg cells in peripheral blood and cerebral spinal fluid [3]: increased levels

Interferon beta
Treg activity after initiation of therapy (Treg): renormalization of Treg activity

C[S+]([O-])CCCCN=C=S (stereo not drawn) [sulforaphane]
EAE Score [1]: reduction in EAE Score
